# Experiments:
# Assay type in all cases: biochemical
# HcyF (WS1006) = target: T1, HcyF (WS1006) (Wolinella succinogenes, UniProt Q7M9D2); assay: HPLC detection of AMP formation; settings: HcyS-Ala and HcyD present; MgCl2; room temperature
# T1 sequence (Q7M9D2 1-272): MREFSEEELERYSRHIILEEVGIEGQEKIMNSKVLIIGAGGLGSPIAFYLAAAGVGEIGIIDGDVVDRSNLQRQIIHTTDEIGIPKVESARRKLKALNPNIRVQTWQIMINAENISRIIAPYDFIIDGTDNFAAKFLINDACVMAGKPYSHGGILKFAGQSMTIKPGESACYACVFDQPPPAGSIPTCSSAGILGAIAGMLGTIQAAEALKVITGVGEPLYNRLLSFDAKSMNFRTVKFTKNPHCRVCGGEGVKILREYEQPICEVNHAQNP
# MetY (WS1012) = target: T2, MetY (WS1012) (Wolinella succinogenes, UniProt Q7M9C8); assay: MALDI-MS of HcyS-homocysteine formation; settings: HcyS-COSH as sulfur donor; room temperature
# T2 sequence (Q7M9C8 1-407): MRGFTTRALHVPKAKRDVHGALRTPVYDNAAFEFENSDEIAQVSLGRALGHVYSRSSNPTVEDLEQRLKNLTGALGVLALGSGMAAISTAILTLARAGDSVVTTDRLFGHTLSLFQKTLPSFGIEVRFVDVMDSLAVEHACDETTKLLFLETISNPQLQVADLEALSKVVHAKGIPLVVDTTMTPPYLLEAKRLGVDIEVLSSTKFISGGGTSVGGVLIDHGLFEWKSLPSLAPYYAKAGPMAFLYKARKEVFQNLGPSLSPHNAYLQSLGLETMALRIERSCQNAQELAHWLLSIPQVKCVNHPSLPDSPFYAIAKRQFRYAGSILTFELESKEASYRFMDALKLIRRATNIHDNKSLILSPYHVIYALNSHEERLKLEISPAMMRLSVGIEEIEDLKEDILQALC
# HcyD (WS1005) = target: T3, HcyD (WS1005) (Wolinella succinogenes, UniProt Q7MRV8); assay: 1H-NMR of released alanine; settings: released from HcyS-Ala (protein substrate); pH 8.0; room temperature
# T3 sequence (Q7MRV8 1-130): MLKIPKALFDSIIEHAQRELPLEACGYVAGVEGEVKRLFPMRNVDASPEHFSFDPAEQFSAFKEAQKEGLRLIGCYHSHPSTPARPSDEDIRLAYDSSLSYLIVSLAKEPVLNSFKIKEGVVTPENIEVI
compound,measurement,setting,value
Nc1ncnc2c1ncn2[C@@H]1O[C@H](COP(=O)(O)OP(=O)(O)OP(=O)(O)O)[C@@H](O)[C@H]1O [ATP],HPLC detection of AMP formation,HcyF (WS1006),"AMP formation was dependent on HcyF, HcyS-Ala and HcyD"
CC(=O)OCC[C@H](N)C(=O)O [O-acetyl-L-homoserine],MALDI-MS of HcyS-homocysteine formation,MetY (WS1012),catalyzed the reaction of HcyS-COSH with O-acetyl-L-homoserine to form HcyS-Homocysteine
C[C@H](N)C(=O)O [alanine],1H-NMR of released alanine,HcyD (WS1005),1H-NMR analysis of the small-molecule product confirmed the release of alanine from HcyS-Ala

# — publication PMC3089676 (Journal of the American Chemical Society, 2010)
